Earlier results as cited in paper PMC10272271, “MAM-2201 acute administration impairs motor, sensorimotor, prepulse inhibition, and memory functions in mice: a comparison with its analogue AM-2201” (Psychopharmacology, 2023).

Tests used:
CD-1 male mice [1] = test system: CD-1 male mice; parameters: method as in Bilel et al. ([2020]); details: i.p., value ± SEM, elaborated from earlier data, ref Bilel et al. ([2020]); cited from earlier work
CD-1 male mice [2] = test system: CD-1 male mice; parameters: method as in Bilel et al. ([2020]); details: i.p., value ± SEM, elaborated from earlier data, ref Bilel et al. ([2020]); cited from earlier work; remark: listed apart in the source

## O=C(c1cccc2ccccc12)c1cn(CCCCCF)c2ccccc12 [AM-2201, 1-[(5-Fluoropentyl)-1H-indol-3-yl](1-naphthylenyl) methanone]
CD-1 male mice [1]
  ED50 (mg/kg), Visual placing: 0.500 ± 0.030 mg/kg
CD-1 male mice [2]
  ED50 (mg/kg), Overall tactile: 2.120 ± 0.013 mg/kg
